Values of other authors as cited in patent US20050107350A1, “Method for the treatment or prevention of bone disorders with a cyclooxygenase-2 inhibitor alone and in combination with a bone disorder treatment agent and compositions therewith” (Pharmacia Corporation, priority 2003, published 2005).
Counter-ions that a name gives are not always drawn.

What was measured:
patients = details: human, in vivo
osteoporosis patients [1] = system: osteoporosis patients
rats = details: rat, in vivo
osteoporosis patients [2] = details: human, in vivo

CC(C)C[C@H](NC(=O)[C@H](CCCCN)NC(=O)CNC(=O)[C@H](CC(C)C)NC(=O)[C@@H](NC(=O)[C@@H]1CSSC[C@H](N)C(=O)N[C@@H](CO)C(=O)N[C@@H](CC(N)=O)C(=O)N[C@@H](CC(C)C)C(=O)N[C@@H](CO)C(=O)N[C@@H]([C@@H](C)O)C(=O)N1)C(C)C)C(=O)N[C@@H](CO)C(=O)N[C@@H](CCC(N)=O)C(=O)N[C@@H](CCC(=O)O)C(=O)N[C@@H](CC(C)C)C(=O)N[C@@H](Cc1c[nH]cn1)C(=O)N[C@@H](CCCCN)C(=O)N[C@@H](CC(C)C)C(=O)N[C@@H](CCC(N)=O)C(=O)N[C@H](C(=O)N[C@@H](Cc1ccc(O)cc1)C(=O)N1CCC[C@H]1C(=O)N[C@@H](CCCNC(=N)N)C(=O)N[C@H](C(=O)N[C@@H](CC(N)=O)C(=O)N[C@H](C(=O)NCC(=O)N[C@@H](CO)C(=O)NCC(=O)N[C@H](C(=O)N1CCC[C@H]1C(N)=O)[C@@H](C)O)[C@@H](C)O)[C@@H](C)O)[C@@H](C)O [calcitonin]
common side effects (patients): flushing, nausea, vomiting, and diarrhea
improvement of BMD (osteoporosis patients [1]; intranasal, after 2 years of treatment): 1-2%

PTH: parathyroid hormone, the only anabolic agent currently available
common side effects (patients): nausea, headaches, and leg cramps
bone tumors (rats): increase in bone tumors
increase of BMD in the spine (osteoporosis patients [1]; Neer et al., NEJM 2001): ≤ 13%

NCCCC(O)(P(=O)(O)O)P(=O)(O)O [alendronate, 4-amino-1-hydroxybulylidene bisphophonic acid]
common side effects (patients): can irritate the lining of the upper gastrointestinal tract
average improvement of patient's BMD (osteoporosis patients [1]; after three years of treatment): 8%
patients treated who show an increase in BMD at the lumbar spine (osteoporosis patients [1]; lumbar spine): ≤ 95%

O=C(c1ccc(OCCN2CCCCC2)cc1)c1c(-c2ccc(O)cc2)sc2cc(O)ccc12 [raloxifene, Methanone, [6-hydroxy-2-(4-hydroxyphenyl)benzo[b]thien-3-yl] - [4-[2-(1-piperidinyl)ethoxy]phenyl]-, hydrochloride]
common side effects (patients): leg cramps and hot flashes
effect on risk of breast cancer (patients): significantly decreases the risk of breast cancer
increase of BMD of the lumbar spine and hip (osteoporosis patients [1]; over 2-3 years of treatment): 2-3%
decrease of vertebral fractures (osteoporosis patients [2]): 50%
